pIC50: −log10 of the molar value. The source made the active and inactive calls. No rule for the calls is given here.
System: T. cruzi-infected H9C2 cardiomyocytes, high-content imaging
Experiment: anti-T. cruzi activity in infected cardiomyocytes – imaging, H9C2 host cardiomyocytes, host toxicity (AID 1159565);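 also: infected cells incubated 72 h after plating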
[1] = measured here: H9C2 host cell toxicity
[2] = measured here: amastigotes per cell

| SMILES | IC50 | pIC50 [1] | pIC50 [2] | pIC50 |
| --- | --- | --- | --- | --- |
| O=C(Nc1nc2ccccc2[nH]1)c1ccc2nc[nH]c2c1 | > 50 µM (inactive) | < 4.30 | 4.30 |  |
| N#Cc1ccccc1S(=O)(=O)N1CCN(C(=O)CNC(=O)c2ccc3c(c2)OCO3)CC1 |  | < 4.30 | 6.20 | 6.00 |
| CNc1cncc(C2CCCN2C(=O)Cc2ccc3ccccc3c2)n1 (stereo not given) |  | < 4.30 | 6.80 | 6.80 |
| CCCN1CCN(Cc2ccc(S(=O)(=O)Nc3cccc(C)c3)cc2)CC1 |  | < 4.30 | 6.20 | 6.10 |
| COc1ccc(CN2C(=O)C(O)(CC(=O)c3ccncc3)c3cc(Br)ccc32)cc1OC (stereo not given) |  | 5.70 | 4.89 | 4.60 |
| COc1ccccc1C=CCN1C[C@H]2CCC[C@@H](C1)C2(O)c1cccnc1 (stereo not given in full) |  | < 4.30 | 7.40 | 7.40 |
| Nc1nccc(-c2csc(Nc3ccc(Cl)cc3)n2)n1 | > 50 µM (inactive) | 5.70 | < 4.30 |  |
| O=C(Nc1ccc(C(F)(F)F)cc1)NC1(C(=O)NCc2ccco2)CCCCC1 | > 50 µM (inactive) | < 4.30 | < 4.30 |  |
| Cn1c(CC(=O)NNC(=O)c2ccc3ccccc3n2)nc2ccccc21 |  | < 4.30 | 5.20 | 5.30 |
| O=c1cc(NCCCNCc2c[nH]c3ccc(Br)cc23)[nH]c2ccccc12 | > 50 µM (inactive) | < 4.30 | 4.49 |  |
| Cc1ccccc1NS(=O)(=O)c1ccc2[nH]cc(C(=O)NC3CCCC3)c(=O)c2c1 |  | 4.70 | 4.60 | 4.49 |
| O=C1CSC(c2cccnc2)N1c1ccc(Cl)cc1Cl (stereo not given) |  | < 4.30 | 6.80 | 6.60 |
| CCOc1ccc(OCC(=O)N2c3ccccc3CC2C(=O)NC)cc1 (stereo not given) | > 50 µM (inactive) | < 4.30 | < 4.30 |  |
| COc1ccc(C2CC(c3ccc(NS(C)(=O)=O)cc3)=NN2C(=O)c2cccs2)cc1OC (stereo not given) |  | < 4.30 | 4.80 | 4.49 |
| O=C(Nc1cccc(Cl)c1)Nc1ccc([N+](=O)[O-])cc1Cl |  | 5.40 | 5.80 | 5.70 |
| CS(=O)(=O)N1CCC(Nc2ncc(Br)c(Nc3cccc(F)c3C(N)=O)n2)CC1 |  | 6.80 | 6.40 | 6.00 |
| O=C(Cn1cnc2c(-c3ccccc3)csc2c1=O)N1CCCCC1 |  | < 4.30 | 5.49 | 5.40 |
| COc1cc(OC)cc(C(=O)N[C@@H](CC(C)C)C(=O)NC2(C#N)CC2)c1 | > 50 µM (inactive) | < 4.30 | < 4.30 |  |

| SMILES | IC50 | pIC50 [1] | pIC50 [2] | pIC50 |
| --- | --- | --- | --- | --- |
| Cc1ccc(NC(=O)c2ccc([N+](=O)[O-])s2)cc1S(=O)(=O)N1CCOCC1 |  | 5.30 | 6.60 | 6.40 |
| CCn1c(-c2nonc2N)nc2c([C@@H](C)O)ncc(O[C@H](CN)c3ccccc3)c21 |  | 6.20 | 5.10 | 5.00 |
| C=CCOCC1Cn2nc([N+](=O)[O-])nc2O1 (stereo not given) |  | < 4.30 | 6.20 | 5.89 |
| COc1ccccc1CNc1cc(C2CC2)nc(-c2nccn2C)n1 |  | 6.20 | 6.00 | 6.10 |
| O=[N+]([O-])c1ccc(-c2nnn(-c3ccc(Cl)cc3)n2)o1 |  | 5.00 | 7.10 | 6.10 |
| O=C(NCCc1ccccc1Cl)c1cccn1-c1cccnc1 |  | < 4.30 | 6.30 | 6.30 |
| COc1cc(C(C)C)c(S(C)(=O)=O)cc1C(=O)N1CCN(c2ccccc2Cl)CC1 |  | 4.70 | 5.70 | 5.60 |
| CCN(CC)c1nc(Nc2ccncc2)nc2ccccc12 |  | 5.10 | 8.30 | 7.10 |
| N#Cc1cc([N+](=O)[O-])ccc1NC1CCCCCC1 |  | < 4.30 | 5.89 | 5.70 |
| O=C(CSc1ccc(-c2ccccn2)nn1)Nc1ccc(Cl)cc1 |  | < 4.30 | 5.70 | 5.60 |
| CCN(CC)S(=O)(=O)c1ccc(OC)c(NC(=O)c2ccc([N+](=O)[O-])s2)c1 |  | < 4.30 | 6.89 | 6.80 |
| CCOc1ccccc1C(=O)Nc1nnc(-c2ccc3c(c2)OCO3)s1 |  | < 4.30 | 7.20 | 7.10 |
| Cc1ccc(S(=O)(=O)Nc2ccc(CN3CCN(C(=O)c4cccc(C)c4)CC3)cc2)cc1 |  | < 4.30 | 6.49 | 6.49 |
| Cc1[nH]n2c(=O)c3c(nc2c1-c1ccc(Cl)cc1)CCCC3 |  | < 4.30 | 6.60 | 6.00 |
| O=C(Nc1ncc([N+](=O)[O-])s1)C1CC1 |  | < 4.30 | 6.40 | 6.00 |
| COc1ccc(C(=O)NC2CCN(CCn3c(=O)ccc4ncc(F)cc43)CC2)cc1Cl |  | < 4.30 | 6.49 | 6.20 |
| COc1cccc(C(=O)[C@H]2C[C@@H]2CN(Cc2cccnc2)Cc2cccnc2)c1 |  | < 4.30 | 7.30 | 7.20 |
